Here are results for 2 molecules from patent US12331051B2 (priority 2021, dated 2025).

The target of data set [1] is T1, D4 dopamine receptor (Homo sapiens, UniProt P21917).
T1 sequence (P21917 1-419): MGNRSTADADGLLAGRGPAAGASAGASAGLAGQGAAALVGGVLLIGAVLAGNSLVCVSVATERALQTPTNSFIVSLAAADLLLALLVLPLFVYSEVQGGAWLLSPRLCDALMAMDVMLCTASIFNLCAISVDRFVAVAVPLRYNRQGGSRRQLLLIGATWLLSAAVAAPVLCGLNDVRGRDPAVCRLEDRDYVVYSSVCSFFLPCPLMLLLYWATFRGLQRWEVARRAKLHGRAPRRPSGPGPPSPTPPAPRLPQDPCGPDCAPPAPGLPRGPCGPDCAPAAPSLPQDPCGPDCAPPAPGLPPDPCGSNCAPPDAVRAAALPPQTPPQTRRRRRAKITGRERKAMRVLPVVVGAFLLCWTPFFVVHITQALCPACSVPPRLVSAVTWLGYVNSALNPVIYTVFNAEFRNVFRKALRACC
Put plainly: BRET-based G protein dissociation assay. It is filed as cell-based. A general note: BRET reads energy transfer from a luciferase to a nearby fluorophore.

The target of data set [2] is H3 histaminergic receptor (Homo sapiens, UniProt Q9Y5N1). Put plainly: BRET-based G protein dissociation assay. It is filed as cell-based. Particulars: percentage of the reference ligand-induced maximal response.
Data set [3] addresses CHRM2 (M2 muscarinic receptor) (Homo sapiens, UniProt P08172). Put plainly: BRET-based G protein dissociation assay. It is filed as cell-based.
Data set [4] concerns the target T2, 5-HT2B receptor (Homo sapiens, UniProt P41595).
T2 construct: expressed in transfected cells; host or cells: HEK293T; Flp-In 293 T-Rex (calcium flux)
Put plainly: 5-HT2B Gq dissociation, β-arrestin2 recruitment and Gq-mediated calcium flux in HEK293T cells. Format: cell-based. As to the method:
The activity of the “E559 polymorph” at the 5-HT2B receptor was further assessed by 5-HT2B-mediated Gq dissociation (FIG. 14A), 5-HT2B-mediated 0-arrestin2 recruitment (FIG. 14B) and 5-HT2B Gq-mediated calcium flux assessments (FIG. 14C) using bioluminescence resonance energy transfer (BRET) assay in HEK293T cells FIG. 14A to C, 5-HT refers to serotonin). […] In 5-HT2B antagonist assays, the “E559 polymorph” antagonism was measured by its ability to block 5-HT2B receptor activation by 5-HT.
(In general: Activated receptors often draw arrestin, which recruitment assays turn into a signal.)

Data set [5] concerns the target ADRa1B (α1B adrenergic receptor) (Homo sapiens, UniProt P35368). Put plainly: BRET-based G protein dissociation assay. Format: cell-based.
The target of data set [6] is ADRb1 (β1 adrenergic receptor) (Homo sapiens, UniProt P08588). Description: BRET-based G protein dissociation assay. It is filed as cell-based.
Data set [7] has as its system primary rat embryonic cortical neurons. Put plainly: In vitro dendritogenesis and spinogenesis assays, Sholl analysis. It is filed as cell-based. As to the method: The ability of the “E559 polymorph” to induce neural plasticity was evaluated in vitro. In vitro dendritogenesis and spinogenesis assays were conducted using primary rat embryonic cortical neurons. Briefly, cultured primary cortical neurons (rat) were treated at day in vitro (DIV) 3 for 3 hours with increasing concentrations (1, 10 and 100 nM, 1 and […]) of the “E559 polymorph” and morphological changes in dendritic arbor complexity (dendritogenesis) were assessed at DIV6 by immunofluorescent staining of fixed neurons with microtubule-associated protein 2 (MAP2, a microtubule marker), F-actin (cytoskeletal marker), and phalloidin (actin filament marker) followed by fluorescent microscopy and Sholl analysis of neurons' images. […] The spine density assessments (spinogenesis) were made on DIV 18. The cell viability assessments were made on DIV 6 by using the Neurite Outgrowth Staining Kit which includes fluorescent probes for dead and live neuronal cells. Ketamine was used as a comparator and positive control. Ketamine is known to induce dendritogenesis and its effects on synaptic plasticity are believed to mediate its antidepressant effects (Aguilar-Valles et al., Nature, 2021, 590, p315-319). Representative images of MAP2 stained rat cortical neurons treated with vehicle (no drug control) or with “E559 polymorph” is shown in FIG. 18A.
Horizontal lines in all figure panels represent the means±standard error of the mean (S.E.M.).

Data set [8] deals with prefrontal cortex region of mice. Description: Spine density analysis in the prefrontal cortex after FST. It is filed as in vivo, mouse. Particulars: both sexes, 1 mg/kg, ~26 hour after treatment. As to the method:
Following testing in the FST, brains were collected for spine density analysis in the prefrontal cortex region (˜26 hour after treatment; FIG. 25H).

Data set [9] is described as follows: DVS hygroscopicity. Particulars: for DVS (hold at 75% RH) mass increase: crude material, 75% relative humidity, ~5 hr run time. It is filed as physicochemical.
Data set [10] has as its target D1 dopamine receptor (Homo sapiens, UniProt P21728). Put plainly: Functional assay in HEK-293 cells (cAMP). Format: cell-based. Also on record: expressed in transfected cells; host or cells: HEK-293. The method, then: Neuro-receptor binding and functional effects of the “E559 polymorph” was examined by analyzing binding affinity [Ki (nM)], functional agonist activity [EC50 (nM)], and functional antagonist activity [IC50 (nM)] against a panel of key receptors in neurophysiological disorders. Binding and functional assays were performed at “E559 polymorph” concentrations of 0.0003, 0.003, 0.01, 0.03, 0.1, 0.3, 1, and 10 μM. In binding assays, cell membrane homogenates, expressing each receptor target, were incubated with the corresponding radio-ligand in absence or presence of several concentration of the “E559 polymorph” compound. The measurement of binding affinity of the “E559 polymorph” is represented in TABLE XIII by Ki (nM) which was calculated as percent inhibition of the binding of a radioactively labeled reference ligand at each receptor. […] Following incubation, the cells were lysed and the appropriate fluorescent probe (Ca2+ flux, cAMP, or IP1) were added for 60 minutes to measure the fluorescence transfer at the appropriate wavelength using a microplate reader. The cellular agonist effect (EC50) was calculated as a percent of control response to a known reference agonist and the cellular antagonist effect (IC50) was calculated as a percent inhibition of control reference agonist response for each receptor.

“Also recorded” adds a separate entry of the source. Like-named read-outs stand apart in the source and are kept apart here. A value given as a limit tells only on which side of the number the result lay.

For orientation: EC50 means the concentration giving half of the maximal effect. In general, Emax refers to the maximal effect, on the per cent scale that the assay sets. In general, IC50 refers to the midpoint of a concentration-inhibition curve.

T2 sequence (P41595 whole entry): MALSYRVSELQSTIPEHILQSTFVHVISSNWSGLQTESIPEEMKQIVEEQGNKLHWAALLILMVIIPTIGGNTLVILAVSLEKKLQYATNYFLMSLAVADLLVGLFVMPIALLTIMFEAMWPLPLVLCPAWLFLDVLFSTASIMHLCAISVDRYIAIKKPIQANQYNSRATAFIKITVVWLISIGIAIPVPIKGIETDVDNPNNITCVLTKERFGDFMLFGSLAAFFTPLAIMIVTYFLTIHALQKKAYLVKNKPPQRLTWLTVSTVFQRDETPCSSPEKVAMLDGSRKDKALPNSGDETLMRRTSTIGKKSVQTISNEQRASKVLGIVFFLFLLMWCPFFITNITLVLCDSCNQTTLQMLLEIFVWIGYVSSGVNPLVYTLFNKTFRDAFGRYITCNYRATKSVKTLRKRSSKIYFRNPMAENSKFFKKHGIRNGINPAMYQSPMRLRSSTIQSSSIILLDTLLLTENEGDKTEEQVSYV
CHRM2 (M2 muscarinic receptor), sequence (P08172 whole entry): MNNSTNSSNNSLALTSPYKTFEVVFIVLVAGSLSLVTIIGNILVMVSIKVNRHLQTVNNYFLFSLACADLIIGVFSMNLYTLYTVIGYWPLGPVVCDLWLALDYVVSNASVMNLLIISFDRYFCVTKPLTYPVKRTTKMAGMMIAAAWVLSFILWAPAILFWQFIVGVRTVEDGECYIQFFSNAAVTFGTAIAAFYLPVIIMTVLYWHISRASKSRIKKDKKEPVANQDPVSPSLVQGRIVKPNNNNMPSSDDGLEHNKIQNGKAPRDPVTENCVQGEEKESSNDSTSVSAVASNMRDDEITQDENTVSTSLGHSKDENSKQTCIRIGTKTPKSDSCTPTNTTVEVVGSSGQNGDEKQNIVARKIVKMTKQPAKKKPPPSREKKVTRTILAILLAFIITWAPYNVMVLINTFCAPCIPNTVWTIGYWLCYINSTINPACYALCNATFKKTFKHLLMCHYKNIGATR
ADRb1 (β1 adrenergic receptor), sequence (P08588 whole entry): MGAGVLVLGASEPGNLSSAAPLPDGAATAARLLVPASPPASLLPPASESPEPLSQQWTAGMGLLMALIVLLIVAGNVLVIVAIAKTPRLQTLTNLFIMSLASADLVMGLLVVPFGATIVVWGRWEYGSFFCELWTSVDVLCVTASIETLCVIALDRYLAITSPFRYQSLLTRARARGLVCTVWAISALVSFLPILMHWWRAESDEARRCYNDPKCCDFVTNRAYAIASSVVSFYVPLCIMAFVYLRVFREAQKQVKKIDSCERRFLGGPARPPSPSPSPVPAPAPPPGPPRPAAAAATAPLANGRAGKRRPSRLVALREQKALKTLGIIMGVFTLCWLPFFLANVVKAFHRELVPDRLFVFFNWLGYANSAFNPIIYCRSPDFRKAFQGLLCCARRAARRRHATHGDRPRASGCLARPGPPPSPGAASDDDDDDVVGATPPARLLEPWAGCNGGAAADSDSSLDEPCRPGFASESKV
D1 dopamine receptor, sequence (P21728 whole entry): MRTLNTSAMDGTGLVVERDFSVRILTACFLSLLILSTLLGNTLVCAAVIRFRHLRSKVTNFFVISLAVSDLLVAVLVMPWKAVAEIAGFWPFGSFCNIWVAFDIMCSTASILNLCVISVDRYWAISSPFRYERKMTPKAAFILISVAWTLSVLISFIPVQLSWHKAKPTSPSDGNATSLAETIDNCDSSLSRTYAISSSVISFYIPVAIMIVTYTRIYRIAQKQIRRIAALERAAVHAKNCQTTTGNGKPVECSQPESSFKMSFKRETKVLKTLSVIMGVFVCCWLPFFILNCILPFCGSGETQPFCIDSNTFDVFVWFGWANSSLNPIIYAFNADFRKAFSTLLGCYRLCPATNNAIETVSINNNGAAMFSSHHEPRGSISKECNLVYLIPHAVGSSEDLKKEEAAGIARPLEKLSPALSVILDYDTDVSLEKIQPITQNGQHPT
H3 histaminergic receptor, sequence (Q9Y5N1 whole entry): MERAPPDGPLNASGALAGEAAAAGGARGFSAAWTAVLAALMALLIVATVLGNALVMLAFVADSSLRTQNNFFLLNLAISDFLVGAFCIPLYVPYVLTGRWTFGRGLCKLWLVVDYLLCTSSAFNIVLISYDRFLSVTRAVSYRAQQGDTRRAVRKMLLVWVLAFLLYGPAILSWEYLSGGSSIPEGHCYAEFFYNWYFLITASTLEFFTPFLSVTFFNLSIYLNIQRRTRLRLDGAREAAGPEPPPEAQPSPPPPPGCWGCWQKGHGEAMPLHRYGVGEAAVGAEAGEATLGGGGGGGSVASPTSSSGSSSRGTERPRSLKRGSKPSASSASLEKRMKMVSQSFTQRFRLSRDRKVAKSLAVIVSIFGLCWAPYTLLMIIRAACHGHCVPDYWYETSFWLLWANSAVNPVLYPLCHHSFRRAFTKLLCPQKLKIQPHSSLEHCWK
ADRa1B (α1B adrenergic receptor), sequence (P35368 whole entry): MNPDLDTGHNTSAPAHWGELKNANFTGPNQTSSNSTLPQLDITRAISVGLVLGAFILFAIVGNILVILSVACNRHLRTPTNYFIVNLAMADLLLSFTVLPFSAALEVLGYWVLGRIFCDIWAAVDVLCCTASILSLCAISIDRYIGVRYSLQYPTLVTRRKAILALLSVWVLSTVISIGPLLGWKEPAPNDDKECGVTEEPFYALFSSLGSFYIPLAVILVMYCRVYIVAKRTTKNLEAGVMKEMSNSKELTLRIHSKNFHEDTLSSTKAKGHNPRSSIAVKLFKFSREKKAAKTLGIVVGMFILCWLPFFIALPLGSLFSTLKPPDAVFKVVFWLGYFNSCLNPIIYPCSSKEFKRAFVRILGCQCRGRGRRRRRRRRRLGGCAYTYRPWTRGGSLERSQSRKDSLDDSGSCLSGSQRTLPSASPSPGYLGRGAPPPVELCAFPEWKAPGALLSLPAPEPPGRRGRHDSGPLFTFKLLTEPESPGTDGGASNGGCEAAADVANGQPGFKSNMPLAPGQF

On to `CCN(CC)C(=O)[C@@H]1C=C2c3cccc4[nH]cc(c34)C[C@H]2N(C)C1` [LSD, lysergic acid diethylamide, reference compound], for which the EC50 in data set [1] (agonist mode, read-out: EC50) was 4.03 nM; in data set [3] (agonist mode, read-out: EC50), over 10000 nM. Besides, the Emax came out at 91.9% in data set [1] (percentage of the reference ligand-induced maximal response, read-out: Emax) and 18.6% in data set [2]. Besides, in [4], the “agonism at 5-HT2B” value was “shows potent agonism of the 5-HT2B receptor; also recorded: an agonist of 5-HT2B”.
For `CCN(CC)C(=O)[C@@H]1C=C2c3cccc4[nH]c(Br)c(c34)C[C@H]2N(C)C1` [E559, (5R, 8R)-2-Bromo-9,10-didehydro-N,N-diethyl-6-methylergoline-8-carboxamide hemi-D-tartrate], the EC50 in data set [1] is 1.22 nM; in data set [6], over 10000 nM; in [3], 214 nM; in data set [10], over 10000 nM. This molecule gave an Emax in [1] of 67.3%. Further, the values for the Kb in [5] and in [6] were 55.9 nM and 95.2 nM, respectively. In data set [4] (Gq dissociation, β-arrestin2 recruitment, calcium flux), the “antagonism of 5-HT-mediated activation of 5-HT2B” value is given as “antagonism was observed in blocking 5-HT-mediated activation of the 5-HT2B receptor in all three assays”. Moreover, in data set [4] (Gq dissociation, β-arrestin2 recruitment, calcium flux, listed as E559 polymorph), the “agonism at 5-HT2B” value was “does not show the agonism seen with LSD; also recorded: inactive as an agonist at the 5-HT2B receptor”. Also, in data set [7] (3 hours treatment at DIV3), the “lowest concentration at which increase in neuronal plasticity reached statistical significance” value stood at 1 µM. In addition, in [7] (3 hours treatment at DIV3), the “lowest concentration at which increase in neuronal plasticity was detectable” value was 1 nM. Moreover, in data set [7] (DIV6, 1 and 10 μM), the “total length of the dendritic arbor” value is reported as “total length of the dendritic arbor was also increased”. Moreover, in [7] (DIV6, 1 and 10 μM significant vs control), the “total dendrites crossing the Sholl radii” value is “significantly increased the number of total dendrites crossing the Sholl radii”. Moreover, the spine density result in data set [7] (DIV 18, 3-hour incubation at 1 and 10 μM) is given as “increased the spine density”. In [8], the “average spine density in prefrontal cortex” value was “significant increase in the average spine density”. Moreover, the “DVS (0-90-0 2 cycles) max water absorbed” value in data set [9] (90% RH exposure, ~24 hr run time, listed as D-Tartrate) is listed as “absorbed max 7% water”. In addition, the “DVS (hold at 75% RH) mass increase” value was “about 3.4%” in data set [9] and 3.4% mass increase in [9] (listed as D-Tartrate). Also, it took 820 nM to reach half-maximal inhibition in [10] (IC50).
